Measured values published in ChEMBL document CHEMBL3112482, “Nonclassical antifolates, part 5. Benzodiazepine analogs as a new class of DHFR inhibitors: synthesis, antitumor testing and molecular modeling study” (Eur J Med Chem, 2014).

Biological target: T1, Dihydrofolate reductase (Bos taurus, UniProt P00376)
T1 sequence (P00376 whole entry): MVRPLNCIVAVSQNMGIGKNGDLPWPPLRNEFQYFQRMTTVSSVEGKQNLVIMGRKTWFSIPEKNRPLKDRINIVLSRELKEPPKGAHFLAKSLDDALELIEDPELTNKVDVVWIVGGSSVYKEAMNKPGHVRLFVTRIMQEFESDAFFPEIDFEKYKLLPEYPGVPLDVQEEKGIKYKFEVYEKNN
Experiment: Inhibition of bovine liver DHFR measured for every 1 min of 10 mins

IC50: 21 µM
Compound: Cc1cc2c(cc1C)NC(c1ccc(Br)cc1)=C1CCC/C(=C\c3ccc(Br)cc3)C1=N2
